The values that follow come from patent US20240190891A1, “PYRIDO OXAZINE AMINO DERIVATIVES AS ALK5 INHIBITORS” (CHIESI FARMACEUTICI S.P.A., priority 2020, published 2024).

pIC50: −log10 of the molar value. Bounds are passed on as bounds.

The target of this test is T1, human ALK5 (Homo sapiens, UniProt P36897).
T1 construct: human ALK5 (recombinant TGF β1 N-term GST-tagged, 80-end); GST (N); purchased
T1 sequence (P36897 80-503 limits assumed): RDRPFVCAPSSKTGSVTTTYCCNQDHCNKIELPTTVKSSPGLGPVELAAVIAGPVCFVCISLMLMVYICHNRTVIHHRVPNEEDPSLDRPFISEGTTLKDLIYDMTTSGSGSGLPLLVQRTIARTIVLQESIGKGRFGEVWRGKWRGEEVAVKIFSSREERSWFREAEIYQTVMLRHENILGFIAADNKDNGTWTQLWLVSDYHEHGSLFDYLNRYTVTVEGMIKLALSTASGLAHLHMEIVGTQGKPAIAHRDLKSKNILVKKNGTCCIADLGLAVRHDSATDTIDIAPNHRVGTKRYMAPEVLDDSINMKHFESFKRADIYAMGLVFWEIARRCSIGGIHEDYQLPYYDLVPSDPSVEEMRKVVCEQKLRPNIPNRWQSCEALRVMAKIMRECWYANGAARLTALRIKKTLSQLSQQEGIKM
The test can be described thus: ADP-GLO Kinases assay, inhibitory activity on ALK5. The following applies: Table 10; purified recombinant human ALK5 2.6 nM, ADP-Glo, 25° C., 150 min incubation. The test is classed as biochemical. On the procedure: The enzymatic activity of compounds of the present invention was monitored measuring the formation of ADP using the ADP-GLO Kinases assay. Following the incubation of the purified enzyme, a substrate and ATP, the produced ADP was converted into ATP, which in turn was converted into light by Ultra-Glo Luciferase. The luminescent signal positively correlated with ADP amount and kinase activity. Briefly, the kinase reaction was performed by incubating 2.6 nM of the purified, commercially available human ALK5 (recombinant TGF β1 N-term GST-tagged, 80-end), a final concentration of TGFβ1 peptide 94.5 μM (Promega, T36-58) and ultra-pure ATP (Promega V915B). The ATP concentration was set at the Km value (concentration of substrate which permits the enzyme to achieve half maximal velocity (Vmax)) of ALK5 (5 μM). All reactions/incubations were performed at 25° C. Compound and ALK5 kinase were mixed and incubated for 15 mins. Reactions were initiated by addition of ATP at a final concentration in the assay of 0.83 μM. After an incubation of 150 min, the reaction was stopped, and ADP production detected with ADP-Glo kit according to manufacturer's indications. The assay was performed in 384-well format and was validated using a selection of reference compounds that was tested in 11 point concentration-response curve.
Compounds of the examples C1, C2 and C3 were tested in the same in vitro assay described above.
`CN1CCN(CCOC(=O)c2cnccc2Nc2cc(-c3cc(Cl)ccc3F)nc3c2OCCN3)CC1` [Example 29, 2-(4-methylpiperazin-1-yl)ethyl 4-{[6-(5-chloro-2-fluorophenyl)-2H,3H,4H-pyrido[3,2-b][1,4]oxazin-8-yl]amino}pyridine-3-carboxylate]: the pIC50 – broadly, −log10 of the IC50, conventionally taken in molar units – was more than 9.00.
`Fc1ccc(Cl)cc1-c1cc(Nc2ccnc3[nH]ncc23)c2c(n1)NCCO2` [Example 25, 6-(5-chloro-2-fluorophenyl)-N-{1H-pyrazolo[3,4-b]pyridin-4-yl}-2H,3H,4H-pyrido[3,2-b][1,4]oxazin-8-amine]: the pIC50 was more than 9.00.
As to `O=C(NCCN1CCOCC1)c1cnccc1Nc1cc(-c2cc(Cl)ccc2F)nc2c1OCCN2` [Example 9, 4-{[6-(5-chloro-2-fluorophenyl)-2H,3H,4H-pyrido[3,2-b][1,4]oxazin-8-yl]amino}-N-[2-(morpholin-4-yl)ethyl]pyridine-3-carboxamide], the pIC50 is 8.30 to 9.00.
With `CN(C)CCC(=O)Nc1cnccc1Nc1cc(-c2cc(Cl)ccc2F)nc2c1OCCN2` [Example 39, N-(4-{[6-(5-chloro-2-fluorophenyl)-2H,3H,4H-pyrido[3,2-b][1,4]oxazin-8-yl]amino}pyridin-3-yl)-3-(dimethylamino)propanamide] the figure was 8.00 to 8.30.
The value for `CN(C)CCOC(=O)c1cnccc1Nc1cc(-c2cc(Cl)ccc2F)nc2c1OCCN2` [Example 27, 2-(dimethylamino)ethyl 4-{[6-(5-chloro-2-fluorophenyl)-2H,3H,4H-pyrido[3,2-b][1,4]oxazin-8-yl]amino}pyridine-3-carboxylate] was 8.30 to 9.00.
`COC(=O)c1c[nH]c2nccc(Nc3cc(-c4cc(Cl)ccc4F)nc4c3OCCN4)c12` [Example 36, methyl 4-{[6-(5-chloro-2-fluorophenyl)-2H,3H,4H-pyrido[3,2-b][1,4]oxazin-8-yl]amino}-1H-pyrrolo[2,3-b]pyridine-3-carboxylate]: the pIC50 was more than 9.00.
Turning to `Nc1cnccc1Nc1cc(-c2cc(Cl)ccc2F)nc2c1OCCN2` [Example 7, N4-[6-(5-chloro-2-fluorophenyl)-2H,3H,4H-pyrido[3,2-b][1,4]oxazin-8-yl]pyridine-3,4-diamine], the pIC50 is 8.30 to 9.00.
In the case of `CN(C)CCC(=O)Nc1cc(Nc2cc(-c3cc(Cl)ccc3F)nc3c2OCCN3)ccn1` [Example 34, N-(4-{[6-(5-chloro-2-fluorophenyl)-2H,3H,4H-pyrido[3,2-b][1,4]oxazin-8-yl]amino}pyridin-2-yl)-3-(dimethylamino)propanamide], the pIC50 was more than 9.00.
Take `CN(C)CCNC(=O)c1cnccc1Nc1cc(-c2cc(Cl)ccc2F)nc2c1OCCN2` [Example 10, 4-{[6-(5-chloro-2-fluorophenyl)-2H,3H,4H-pyrido[3,2-b][1,4]oxazin-8-yl]amino}-N-[2-(dimethylamino)ethyl]pyridine-3-carboxamide]: the pIC50 is more than 9.00.
Turning to `O=C(NCCN1CCNCC1)c1cnccc1Nc1cc(-c2cc(Cl)ccc2F)nc2c1OCCN2` [Example 12, 4-{[6-(5-chloro-2-fluorophenyl)-2H,3H,4H-pyrido[3,2-b][1,4]oxazin-8-yl]amino}-N-[2-(piperazin-1-yl)ethyl]pyridine-3-carboxamide], the pIC50 was more than 9.00.
With `O=C(NC1CCNCC1)c1cnccc1Nc1cc(-c2cc(Cl)ccc2F)nc2c1OCCN2` [Example 24, 4-{[6-(5-chloro-2-fluorophenyl)-2H,3H,4H-pyrido[3,2-b][1,4]oxazin-8-yl]amino}-N-(piperidin-4-yl)pyridine-3-carboxamide] the figure was more than 9.00; with `Nc1cc(Nc2cc(-c3cc(Cl)ccc3F)nc3c2OCCN3)ccn1` [Example 3, N4-[6-(5-chloro-2-fluorophenyl)-2H,3H,4H-pyrido[3,2-b][1,4]oxazin-8-yl]pyridine-2,4-diamine], 8.30 to 9.00; with `O=C(NC1CC1)c1cnccc1Nc1cc(-c2cc(Cl)ccc2F)nc2c1OCCN2` [Example 23, 4-{[6-(5-chloro-2-fluorophenyl)-2H,3H,4H-pyrido[3,2-b][1,4]oxazin-8-yl]amino}-N-cyclopropylpyridine-3-carboxamide], more than 9.00.
In the case of `Cc1cccc(-c2cc(Nc3ccncc3C(=O)NC3CCN(C)CC3)c3c(n2)NCCO3)n1` [Example 42, N-(1-methylpiperidin-4-yl)-4-{[6-(6-methylpyridin-2-yl)-2H,3H,4H-pyrido[3,2-b][1,4]oxazin-8-yl]amino}pyridine-3-carboxamide], the pIC50 is 8.30 to 9.00.
In the case of `CN(C)CCNC(=O)c1cc2c(Nc3cc(-c4cc(Cl)ccc4F)nc4c3OCCN4)ccnc2[nH]1` [Example 49, 4-{[6-(5-chloro-2-fluorophenyl)-2H,3H,4H-pyrido[3,2-b][1,4]oxazin-8-yl]amino}-N-[2-(dimethylamino)ethyl]-1H-pyrrolo[2,3-b]pyridine-2-carboxamide], the pIC50 was more than 9.00.
With `COC(=O)c1cnccc1Nc1cc(-c2cccc(C)n2)nc2c1OCCN2` [Example 30, methyl 4-{[6-(6-methylpyridin-2-yl)-2H,3H,4H-pyrido[3,2-b][1,4]oxazin-8-yl]amino}pyridine-3-carboxylate], the pIC50 is more than 9.00.
The value for `CN1CCN(CCC(=O)Nc2cc(Nc3cc(-c4cc(Cl)ccc4F)nc4c3OCCN4)ccn2)CC1` [Example 33, N-(4-{[6-(5-chloro-2-fluorophenyl)-2H,3H,4H-pyrido[3,2-b][1,4]oxazin-8-yl]amino}pyridin-2-yl)-3-(4-methylpiperazin-1-yl)propanamide] was more than 9.00; that for `Cc1cccc(-c2cc(Nc3ccncc3)c3c(n2)NCCO3)n1` [Example 5, N-[6-(6-methylpyridin-2-yl)-2H,3H,4H-pyrido[3,2-b][1,4]oxazin-8-yl]pyridin-4-amine] was 8.00 to 8.30; that for `CN1CCN(CCNC(=O)c2cnccc2Nc2cc(-c3cc(Cl)ccc3F)nc3c2OCCN3)CC1` [Example 28, 4-{[6-(5-chloro-2-fluorophenyl)-2H,3H,4H-pyrido[3,2-b][1,4]oxazin-8-yl]amino}-N-[2-(4-methylpiperazin-1-yl)ethyl]pyridine-3-carboxamide] was 8.30 to 9.00.
Take `CC(=O)N1CCN(CCNC(=O)c2cnccc2Nc2cc(-c3cc(Cl)ccc3F)nc3c2OCCN3)CC1` [Example 47, N-[2-(4-acetylpiperazin-1-yl)ethyl]-4-{[6-(5-chloro-2-fluorophenyl)-2H,3H,4H-pyrido[3,2-b][1,4]oxazin-8-yl]amino}pyridine-3-carboxamide]: the pIC50 is 8.30 to 9.00.
As to `CNCCNC(=O)c1cnccc1Nc1cc(-c2cc(Cl)ccc2F)nc2c1OCCN2` [Example 21, 4-{[6-(5-chloro-2-fluorophenyl)-2H,3H,4H-pyrido[3,2-b][1,4]oxazin-8-yl]amino}-N-[2-(methylamino)ethyl]pyridine-3-carboxamide], the pIC50 was more than 9.00.
`Cc1csc(-c2cc(Nc3ccncc3)c3c(n2)NCCO3)n1` [Example 4, N-[6-(4-methyl-1,3-thiazol-2-yl)-2H,3H,4H-pyrido[3,2-b][1,4]oxazin-8-yl]pyridin-4-amine]: the pIC50 was 8.00 to 8.30.
With `CN1CCC(NC(=O)c2cnccc2Nc2cc(-c3cc(Cl)ccc3F)nc3c2OCCN3)CC1` [Example 32, 4-{[6-(5-chloro-2-fluorophenyl)-2H,3H,4H-pyrido[3,2-b][1,4]oxazin-8-yl]amino}-N-(1-methylpiperidin-4-yl)pyridine-3-carboxamide], the pIC50 is more than 9.00.
Take `Cc1cccc(-c2cc(Nc3ccncc3)c3c(n2)NCCO3)c1` [Example 18, N-[6-(3-methylphenyl)-2H,3H,4H-pyrido[3,2-b][1,4]oxazin-8-yl]pyridin-4-amine]: the pIC50 is 8.30 to 9.00.
Take `Clc1cccc(-c2cc(Nc3ccncc3)c3c(n2)NCCO3)n1` [Example 13, N-[6-(6-chloropyridin-2-yl)-2H,3H,4H-pyrido[3,2-b][1,4]oxazin-8-yl]pyridin-4-amine]: the pIC50 was 8.30 to 9.00.
Consider `CNC(=O)c1cnccc1Nc1cc(-c2cc(Cl)ccc2F)nc2c1OCCN2` [Example 2, 4-{[6-(5-chloro-2-fluorophenyl)-2H,3H,4H-pyrido[3,2-b][1,4]oxazin-8-yl]amino}-N-methylpyridine-3-carboxamide], for which the pIC50 was more than 9.00.
Consider `COC(=O)c1cc2c(Nc3cc(-c4cc(Cl)ccc4F)nc4c3OCCN4)ccnc2[nH]1` [Example 38, methyl 4-{[6-(5-chloro-2-fluorophenyl)-2H,3H,4H-pyrido[3,2-b][1,4]oxazin-8-yl]amino}-1H-pyrrolo[2,3-b]pyridine-2-carboxylate], for which the pIC50 was more than 9.00.
In the case of `Fc1ccccc1-c1cc(Nc2ccncc2)c2c(n1)NCCO2` [Example 11, N-[6-(2-fluorophenyl)-2H,3H,4H-pyrido[3,2-b][1,4]oxazin-8-yl]pyridin-4-amine], the pIC50 is 8.30 to 9.00.
